Results from the NIST ThermoML archive (doi:10.1016/j.jct.2017.05.020).
± gives the expanded uncertainty stated by the source.

Key:
[1] = wn = mass fraction of the nth substance listed; conditions: 100 kPa, Liquid, Vibrating tube method
[2] = refractive index (Na D-line) (dimensionless); wn = mass fraction of the nth substance listed; conditions: 100 kPa, Liquid, Standard Abbe refractometry
[3] = 100 kPa, Liquid, Vibrating tube method
[4] = refractive index (Na D-line) (dimensionless); conditions: 100 kPa, Liquid, Standard Abbe refractometry

In the case of `C=CC[P+](c1ccccc1)(c1ccccc1)c1ccccc1.[Br-]` [allyltriphenylphosphonium bromide] + OCCOCCOCCO, the mass density ([1]; 293.15 K, w1 = 0.1375) is reported as 1146.2 ± 7.9 kg/m3, the mass density ([1]; 293.15 K, w1 = 0.2033) is reported as 1159.2 ± 7.8 kg/m3 and the mass density ([1]; 293.15 K, w1 = 0.3895) is reported as 1190.8 ± 7.7 kg/m3. The mass density ([1]; 298.15 K, w1 = 0.1375) was 1142.5 ± 7.9 kg/m3, the mass density ([1]; 298.15 K, w1 = 0.2033) was 1155.5 ± 7.8 kg/m3 and the mass density ([1]; 298.15 K, w1 = 0.3895) was 1187.1 ± 7.7 kg/m3. For the same compound, the mass density ([1]; 303.15 K, w1 = 0.1375) was 1138.8 ± 7.9 kg/m3, the mass density ([1]; 303.15 K, w1 = 0.2033) was 1151.7 ± 7.7 kg/m3 and the mass density ([1]; 303.15 K, w1 = 0.3895) was 1183.4 ± 7.7 kg/m3. For the same compound, the mass density ([1]; 308.15 K, w1 = 0.1375) was 1135 ± 7.8 kg/m3, the mass density ([1]; 308.15 K, w1 = 0.2033) was 1148 ± 7.7 kg/m3 and the mass density ([1]; 308.15 K, w1 = 0.3895) was 1179.7 ± 7.7 kg/m3. For the same compound, the mass density ([1]; 313.15 K, w1 = 0.1375) was 1131.3 ± 7.8 kg/m3, the mass density ([1]; 313.15 K, w1 = 0.2033) was 1144.2 ± 7.7 kg/m3 and the mass density ([1]; 313.15 K, w1 = 0.3895) was 1176.1 ± 7.7 kg/m3. For the same compound, the mass density ([1]; 318.15 K, w1 = 0.1375) was 1127.5 ± 7.8 kg/m3, the mass density ([1]; 318.15 K, w1 = 0.2033) was 1140.5 ± 7.7 kg/m3 and the mass density ([1]; 318.15 K, w1 = 0.3895) was 1172.4 ± 7.6 kg/m3. The mass density ([1]; 323.15 K, w1 = 0.1375) was 1123.7 ± 7.8 kg/m3, the mass density ([1]; 323.15 K, w1 = 0.2033) was 1136.7 ± 7.6 kg/m3 and the mass density ([1]; 323.15 K, w1 = 0.3895) was 1168.7 ± 7.6 kg/m3. For the same compound, the mass density ([1]; 328.15 K, w1 = 0.1375) was 1119.9 ± 7.7 kg/m3, the mass density ([1]; 328.15 K, w1 = 0.2033) was 1133 ± 7.6 kg/m3 and the mass density ([1]; 328.15 K, w1 = 0.3895) was 1165 ± 7.6 kg/m3. For the same compound, the mass density ([1]; 333.15 K, w1 = 0.1375) was 1116.1 ± 7.7 kg/m3, the mass density ([1]; 333.15 K, w1 = 0.2033) was 1129.2 ± 7.6 kg/m3 and the mass density ([1]; 333.15 K, w1 = 0.3895) was 1161.3 ± 7.6 kg/m3. The mass density ([1]; 338.15 K, w1 = 0.1375) was 1112.2 ± 7.7 kg/m3, the mass density ([1]; 338.15 K, w1 = 0.2033) was 1125.5 ± 7.6 kg/m3 and the mass density ([1]; 338.15 K, w1 = 0.3895) was 1157.6 ± 7.5 kg/m3. The mass density ([1]; 343.15 K, w1 = 0.1375) was 1108.4 ± 7.7 kg/m3, the mass density ([1]; 343.15 K, w1 = 0.2033) was 1121.7 ± 7.5 kg/m3 and the mass density ([1]; 343.15 K, w1 = 0.3895) was 1153.9 ± 7.5 kg/m3. For the same compound, the refractive index ([2]; 293.15 K, w1 = 0.1375) was 1.4803 ± 0.0038, the refractive index ([2]; 293.15 K, w1 = 0.2033) was 1.4945 ± 0.0039 and the refractive index ([2]; 293.15 K, w1 = 0.3895) was 1.5314 ± 0.0037. It also gave a refractive index ([2]; 298.15 K, w1 = 0.1375) of 1.4786 ± 0.0038, a refractive index ([2]; 298.15 K, w1 = 0.2033) of 1.4927 ± 0.0039 and a refractive index ([2]; 298.15 K, w1 = 0.3895) of 1.5297 ± 0.0037. For the same compound, the refractive index ([2]; 303.15 K, w1 = 0.1375) was 1.4769 ± 0.0038, the refractive index ([2]; 303.15 K, w1 = 0.2033) was 1.4909 ± 0.0039 and the refractive index ([2]; 303.15 K, w1 = 0.3895) was 1.528 ± 0.0037. For the same compound, the refractive index ([2]; 308.15 K, w1 = 0.1375) was 1.4752 ± 0.0038, the refractive index ([2]; 308.15 K, w1 = 0.2033) was 1.4892 ± 0.0039 and the refractive index ([2]; 308.15 K, w1 = 0.3895) was 1.5263 ± 0.0037. It also gave a refractive index ([2]; 313.15 K, w1 = 0.1375) of 1.4735 ± 0.0038, a refractive index ([2]; 313.15 K, w1 = 0.2033) of 1.4874 ± 0.0039 and a refractive index ([2]; 313.15 K, w1 = 0.3895) of 1.5245 ± 0.0037. It also gave a refractive index ([2]; 318.15 K, w1 = 0.1375) of 1.4717 ± 0.0038, a refractive index ([2]; 318.15 K, w1 = 0.2033) of 1.4857 ± 0.0039 and a refractive index ([2]; 318.15 K, w1 = 0.3895) of 1.5228 ± 0.0037. It also gave a refractive index ([2]; 323.15 K, w1 = 0.1375) of 1.47 ± 0.0038, a refractive index ([2]; 323.15 K, w1 = 0.2033) of 1.4839 ± 0.0039 and a refractive index ([2]; 323.15 K, w1 = 0.3895) of 1.5211 ± 0.0037. The refractive index ([2]; 328.15 K, w1 = 0.1375) was 1.4683 ± 0.0038, the refractive index ([2]; 328.15 K, w1 = 0.2033) was 1.4822 ± 0.0039 and the refractive index ([2]; 328.15 K, w1 = 0.3895) was 1.5193 ± 0.0037. It also gave a refractive index ([2]; 333.15 K, w1 = 0.1375) of 1.4666 ± 0.0038, a refractive index ([2]; 333.15 K, w1 = 0.2033) of 1.4804 ± 0.0039 and a refractive index ([2]; 333.15 K, w1 = 0.3895) of 1.5176 ± 0.0037. For the same compound, the refractive index ([2]; 338.15 K, w1 = 0.1375) was 1.4649 ± 0.0038, the refractive index ([2]; 338.15 K, w1 = 0.2033) was 1.4787 ± 0.0039 and the refractive index ([2]; 338.15 K, w1 = 0.3895) was 1.5158 ± 0.0037. It also gave a refractive index ([2]; 343.15 K, w1 = 0.1375) of 1.4632 ± 0.0038, a refractive index ([2]; 343.15 K, w1 = 0.2033) of 1.4769 ± 0.0039 and a refractive index ([2]; 343.15 K, w1 = 0.3895) of 1.5141 ± 0.0037.
For `OCCOCCO` [diethylene glycol], the mass density ([3]; 293.15 K) was 1116.5 ± 7.4 kg/m3, the mass density ([3]; 298.15 K) was 1113 ± 7.4 kg/m3 and the mass density ([3]; 303.15 K) was 1109.4 ± 7.3 kg/m3. It also gave a mass density ([3]; 308.15 K) of 1105.8 ± 7.3 kg/m3, a mass density ([3]; 313.15 K) of 1102.2 ± 7.3 kg/m3 and a mass density ([3]; 318.15 K) of 1098.6 ± 7.3 kg/m3. The mass density ([3]; 323.15 K) was 1095 ± 7.2 kg/m3, the mass density ([3]; 328.15 K) was 1091.4 ± 7.2 kg/m3 and the mass density ([3]; 333.15 K) was 1087.7 ± 7.2 kg/m3. It also gave a mass density ([3]; 338.15 K) of 1084 ± 7.2 kg/m3, a mass density ([3]; 343.15 K) of 1080.3 ± 7.1 kg/m3 and a refractive index ([4]; 293.15 K) of 1.4477 ± 0.0032. The refractive index ([4]; 298.15 K) was 1.4461 ± 0.0032, the refractive index ([4]; 303.15 K) was 1.4446 ± 0.0032 and the refractive index ([4]; 308.15 K) was 1.443 ± 0.0032. It also gave a refractive index ([4]; 313.15 K) of 1.4415 ± 0.0032, a refractive index ([4]; 318.15 K) of 1.44 ± 0.0032 and a refractive index ([4]; 323.15 K) of 1.4384 ± 0.0032. It also gave a refractive index ([4]; 328.15 K) of 1.4368 ± 0.0032, a refractive index ([4]; 333.15 K) of 1.4351 ± 0.0032 and a refractive index ([4]; 338.15 K) of 1.4334 ± 0.0032. For the same compound, the refractive index ([4]; 343.15 K) was 1.4317 ± 0.0032.
For `OCCOCCO` [diethylene glycol] + C=CC[P+](c1ccccc1)(c1ccccc1)c1ccccc1.[Br-], the mass density ([1]; 293.15 K, w2 = 0) was 1116.5 ± 7.4 kg/m3, the mass density ([1]; 298.15 K, w2 = 0) was 1113 ± 7.4 kg/m3 and the mass density ([1]; 303.15 K, w2 = 0) was 1109.4 ± 7.3 kg/m3. It also gave a mass density ([1]; 308.15 K, w2 = 0) of 1105.8 ± 7.3 kg/m3, a mass density ([1]; 313.15 K, w2 = 0) of 1102.2 ± 7.3 kg/m3 and a mass density ([1]; 318.15 K, w2 = 0) of 1098.6 ± 7.3 kg/m3. For the same compound, the mass density ([1]; 323.15 K, w2 = 0) was 1095 ± 7.2 kg/m3, the mass density ([1]; 328.15 K, w2 = 0) was 1091.4 ± 7.2 kg/m3 and the mass density ([1]; 333.15 K, w2 = 0) was 1087.7 ± 7.2 kg/m3. The mass density ([1]; 338.15 K, w2 = 0) was 1084 ± 7.2 kg/m3, the mass density ([1]; 343.15 K, w2 = 0) was 1080.3 ± 7.1 kg/m3 and the refractive index ([2]; 293.15 K, w2 = 0) was 1.4477 ± 0.0032. The refractive index ([2]; 298.15 K, w2 = 0) was 1.4461 ± 0.0032, the refractive index ([2]; 303.15 K, w2 = 0) was 1.4446 ± 0.0032 and the refractive index ([2]; 308.15 K, w2 = 0) was 1.443 ± 0.0032. The refractive index ([2]; 313.15 K, w2 = 0) was 1.4415 ± 0.0032, the refractive index ([2]; 318.15 K, w2 = 0) was 1.44 ± 0.0032 and the refractive index ([2]; 323.15 K, w2 = 0) was 1.4384 ± 0.0032. The refractive index ([2]; 328.15 K, w2 = 0) was 1.4368 ± 0.0032, the refractive index ([2]; 333.15 K, w2 = 0) was 1.4351 ± 0.0032 and the refractive index ([2]; 338.15 K, w2 = 0) was 1.4334 ± 0.0032. It also gave a refractive index ([2]; 343.15 K, w2 = 0) of 1.4317 ± 0.0032.
